{"source": "ChEMBL document CHEMBL5257025", "about": "“Artemisinin-Derived Dimers: Potent Antimalarial and Anticancer Agents” (J Med Chem, 2016)", "key": {"[1]": {"test": "Cytotoxicity against African green monkey Vero cells", "assay_type": "toxicity, cell-based", "settings": "chlorocebus sabaeus, read-out: TC50 (the source's name)"}, "[2]": {"test": "Antiproliferative activity against human BC cells assessed as growth inhibition", "assay_type": "functional, cell-based"}, "Plasmodium falciparum [3]": {"system": "Plasmodium falciparum", "test": "Antiplasmodial activity against Plasmodium falciparum NF54 assessed as reduction in malarial growth", "assay_type": "functional, organism-based"}, "KB": {"system": "KB", "test": "Antiproliferative activity against human KB cells assessed as reduction in cell viability incubated for 48 hrs by MTT assay", "assay_type": "functional, cell-based"}, "BT-549": {"system": "BT-549", "test": "Antiproliferative activity against human BT-549 cells assessed as reduction in cell viability incubated for 48 hrs by MTT assay", "assay_type": "functional, cell-based", "settings": "BT-549, 48 h"}, "Plasmodium falciparum [4]": {"system": "Plasmodium falciparum", "test": "Antimalarial activity against Plasmodium falciparum K1 assessed as inhibition of malarial growth", "assay_type": "functional, organism-based"}, "Jurkat": {"system": "Jurkat", "test": "Antiproliferative activity against human Jurkat cells assessed as reduction in cell viability incubated for 48 hrs by MTT assay", "assay_type": "functional, cell-based"}, "Plasmodium falciparum [5]": {"system": "Plasmodium falciparum", "test": "Antimalarial activity against Plasmodium falciparum HB3 assessed as inhibition of malarial growth", "assay_type": "functional, organism-based"}, "HL-60": {"system": "HL-60", "test": "Growth inhibition of human HL-60 cells assessed as cell growth inhibition measured after 48 hrs by MTT assay", "assay_type": "functional"}, "UACC-62": {"system": "UACC-62", "test": "Growth inhibition of human UACC-62 cells assessed as cell growth inhibition measured after 48 hrs by MTT assay", "assay_type": "functional"}, "Plasmodium falciparum [6]": {"system": "Plasmodium falciparum", "test": "Antimalarial activity against Plasmodium falciparum 3D7 assessed as inhibition of malarial growth", "assay_type": "functional, organism-based"}, "MCF7": {"system": "MCF7", "test": "Growth inhibition of human MCF7 cells assessed as cell growth inhibition incubated for 48 hrs by MTT assay", "assay_type": "functional"}, "TK-10": {"system": "TK-10", "test": "Growth inhibition of human TK-10 cells assessed as cell growth inhibition measured after 48 hrs by MTT assay", "assay_type": "functional"}, "Plasmodium falciparum [7]": {"system": "Plasmodium falciparum", "test": "Antimalarial activity against Plasmodium falciparum NF54 assessed as reduction in cell growth", "assay_type": "functional, organism-based"}, "TRAMP-C1A": {"system": "TRAMP-C1A", "test": "Cytotoxicity against mouse TRAMP-C1A cells assessed as inhibition of cell growth measured after 72 hrs by MTT assay", "assay_type": "functional, cell-based"}, "C2G cell line": {"system": "C2G cell line", "test": "Cytotoxicity against mouse C2G cells assessed as inhibition of cell growth measured after 72 hrs by MTT assay", "assay_type": "functional, cell-based"}, "C2D cell line": {"system": "C2D cell line", "test": "Cytotoxicity against mouse C2D cell line assessed as inhibition of cell growth measured after 72 hrs by MTT assay", "assay_type": "functional, cell-based"}, "Plasmodium falciparum [8]": {"system": "Plasmodium falciparum", "test": "Antimalarial activity against Plasmodium falciparum NF54 assessed as inhibition of cell growth incubated for 72 hrs by SYBR Green I staining based fluorescence analysis", "assay_type": "functional, organism-based", "settings": "NF54, 72 h"}, "TRAMP-C2H": {"system": "TRAMP-C2H", "test": "Cytotoxicity against mouse TRAMP-C2H cells assessed as inhibition of cell growth measured after 72 hs by MTT assay", "assay_type": "functional, cell-based"}, "MDA-MB-231": {"system": "MDA-MB-231", "test": "Antiproliferative activity against human MDA-MB-231 cells assessed as reduction in cell viability measured after 48 hrs by MTT assay", "assay_type": "functional, cell-based", "settings": "MDA-MB-231, 48 h"}, "BT-474": {"system": "BT-474", "test": "Antiproliferative activity against human BT-474 cells assessed as reduction in cell growth measured after 72 hrs by MTT assay", "assay_type": "functional, cell-based", "settings": "BT-474, 72 h"}, "HCT-116": {"system": "HCT-116", "test": "Antiproliferative activity against human HCT-116 cells assessed as growth after 48 hrs by MTT assay", "assay_type": "functional, cell-based", "settings": "HCT-116, 48 h"}, "[9]": {"test": "Cytotoxicity against human HFF cells assessed as cell growth inhibition measured after 48 hrs by MTT assay", "assay_type": "toxicity, cell-based"}, "HeLa": {"system": "HeLa", "test": "Antiproliferative activity against human Hela cells assessed as cell growth inhibition measured after 48 hrs by MTT assay", "assay_type": "functional, cell-based"}, "[10]": {"test": "Antiproliferative activity against human 1205Lu cells assessed as reduction in cell growth", "assay_type": "functional, cell-based"}}, "data": [{"molecule": "C[C@@H]1CC[C@H]2[C@H](C[C@]3(CCCCc4ccccc4)O[C@H]4O[C@@]5(C)CC[C@H]6[C@H](C)CC[C@@H]([C@H]3C)[C@@]46OO5)C(=O)O[C@H]3O[C@@]4(C)CC[C@@H]1[C@]32OO4", "values": [{"measurement": "CC50", "setting": "[1]", "result": 2400, "unit": "nM"}, {"measurement": "IC50", "setting": "[2]", "result": 1200, "unit": "nM"}, {"measurement": "IC50", "setting": "Plasmodium falciparum [3]", "result": 3.4, "unit": "nM"}, {"measurement": "IC50", "setting": "KB", "result": 5.7, "unit": "µM"}]}, {"molecule": "C[C@@H]1CC[C@H]2[C@@H](C)C(OCC(O)COC3O[C@@H]4O[C@]5(C)CC[C@@H]6[C@@H](C)CC[C@H]([C@@H]3C)[C@]46OO5)O[C@H]3O[C@@]4(C)CC[C@@H]1[C@]32OO4", "note": "(stereo partly specified)", "values": [{"measurement": "IC50", "setting": "BT-549", "result": 480, "unit": "nM"}]}, {"molecule": "COP(=O)(OCCCC1O[C@H]2O[C@@]3(C)CC[C@H]4[C@H](C)CC[C@@H]([C@H]1C)[C@@]24OO3)OCCC1O[C@H]2O[C@@]3(C)CC[C@H]4[C@H](C)CC[C@@H]([C@H]1C)[C@@]24OO3", "note": "(stereo partly specified)", "values": [{"measurement": "IC50", "setting": "Plasmodium falciparum [4]", "result": 0.2, "unit": "nM"}, {"measurement": "IC50", "setting": "Jurkat", "result": 7.7, "unit": "µM"}, {"measurement": "IC50", "setting": "Plasmodium falciparum [5]", "result": 0.09, "unit": "nM"}, {"measurement": "GI50", "setting": "HL-60", "result": 143, "unit": "nM"}]}, {"molecule": "C[C@@H]1CC[C@H]2[C@@H](C)C(OCCCN3CC[N+](CCCOC4O[C@@H]5O[C@]6(C)CC[C@@H]7[C@@H](C)CC[C@H]([C@@H]4C)[C@]57OO6)(CCNc4ccnc5cc(Cl)ccc45)CC3)O[C@H]3O[C@@]4(C)CC[C@@H]1[C@]32OO4", "note": "(stereo partly specified)", "values": [{"measurement": "GI50", "setting": "UACC-62", "result": 40, "unit": "nM"}, {"measurement": "IC50", "setting": "Plasmodium falciparum [6]", "result": 29.5, "unit": "nM"}, {"measurement": "GI50", "setting": "MCF7", "result": 30, "unit": "nM"}, {"measurement": "GI50", "setting": "TK-10", "result": 80, "unit": "nM"}]}, {"molecule": "C[C@@H]1CC[C@H]2[C@@H](C)C(CC(CC3O[C@@H]4O[C@]5(C)CC[C@@H]6[C@@H](C)CC[C@H]([C@@H]3C)[C@]46OO5)C(=O)O)O[C@H]3O[C@@]4(C)CC[C@@H]1[C@]32OO4", "note": "(stereo partly specified)", "values": [{"measurement": "IC50", "setting": "Plasmodium falciparum [7]", "result": 2.4, "unit": "nM"}, {"measurement": "IC50", "setting": "TRAMP-C1A", "result": 159, "unit": "nM"}, {"measurement": "IC50", "setting": "C2G cell line", "result": 134, "unit": "nM"}, {"measurement": "IC50", "setting": "C2D cell line", "result": 231, "unit": "nM"}]}, {"molecule": "C[C@H]1[C@@H](CC(F)(F)c2ccc(C(F)(F)C[C@H]3O[C@H]4O[C@@]5(C)CC[C@H]6[C@H](C)CC[C@@H]([C@H]3C)[C@@]46OO5)cc2)O[C@H]2O[C@@]3(C)CC[C@H]4[C@H](C)CC[C@@H]1[C@@]24OO3", "values": [{"measurement": "IC50", "setting": "Plasmodium falciparum [8]", "result": 28, "unit": "nM"}]}, {"molecule": "C[C@@H]1CC[C@H]2[C@@H](C)C(CC(COC(=O)c3cc[n+]([O-])cc3)CC3O[C@H]4O[C@@]5(C)CC[C@H]6[C@H](C)CC[C@@H]([C@H]3C)[C@@]46OO5)O[C@H]3O[C@@]4(C)CC[C@@H]1[C@]32OO4", "note": "(stereo partly specified)", "values": [{"measurement": "IC50", "setting": "Plasmodium falciparum [7]", "result": 0.53, "unit": "nM"}, {"measurement": "IC50", "setting": "TRAMP-C2H", "result": 36.1, "unit": "nM"}, {"measurement": "IC50", "setting": "TRAMP-C1A", "result": 84.6, "unit": "nM"}, {"measurement": "IC50", "setting": "C2G cell line", "result": 47.4, "unit": "nM"}, {"measurement": "IC50", "setting": "C2D cell line", "result": 62.1, "unit": "nM"}]}, {"molecule": "C[C@@H]1CC[C@H]2[C@@H](C)C(CC(CC3O[C@@H]4O[C@]5(C)CC[C@@H]6[C@@H](C)CC[C@H]([C@@H]3C)[C@]46OO5)CN3CCN(C)CC3)O[C@H]3O[C@@]4(C)CC[C@@H]1[C@]32OO4", "note": "(stereo partly specified)", "values": [{"measurement": "IC50", "setting": "MDA-MB-231", "result": 3.3, "unit": "µM"}, {"measurement": "IC50", "setting": "BT-474", "result": 110, "unit": "nM"}]}, {"molecule": "C[C@@H]1CC[C@H]2[C@@H](C)C(CCN3CCC(C4CCN(CCC5O[C@H]6O[C@@]7(C)CC[C@H]8[C@H](C)CC[C@@H]([C@H]5C)[C@@]68OO7)CC4)CC3)O[C@H]3O[C@@]4(C)CC[C@@H]1[C@]32OO4", "note": "(stereo partly specified)", "values": [{"measurement": "GI50", "setting": "HL-60", "result": 400, "unit": "nM"}]}, {"molecule": "C[C@@H]1CC[C@H]2[C@@H](C)C(CC(COP(=O)(O)Oc3ccccc3)CC3O[C@@H]4O[C@]5(C)CC[C@@H]6[C@@H](C)CC[C@H]([C@@H]3C)[C@]46OO5)O[C@H]3O[C@@]4(C)CC[C@@H]1[C@]32OO4", "note": "(stereo partly specified)", "values": [{"measurement": "IC50", "setting": "HCT-116", "result": 6670, "unit": "nM"}, {"measurement": "IC50 at 48 h", "setting": "[9]", "result": 56.5, "unit": "µM"}, {"measurement": "IC50", "setting": "HeLa", "result": 18600, "unit": "nM"}]}, {"molecule": "C[C@@H]1CC[C@H]2[C@@H](C)C(OCCC(CCCNc3ccnc4ccc(Cl)cc34)CCOC3O[C@@H]4O[C@]5(C)CC[C@@H]6[C@@H](C)CC[C@H]([C@@H]3C)[C@]46OO5)O[C@H]3O[C@@]4(C)CC[C@@H]1[C@]32OO4", "note": "(stereo partly specified)", "values": [{"measurement": "GI50", "setting": "UACC-62", "result": 50, "unit": "nM"}, {"measurement": "IC50", "setting": "Plasmodium falciparum [6]", "result": 8.7, "unit": "nM"}, {"measurement": "GI50", "setting": "MCF7", "result": 30, "unit": "nM"}, {"measurement": "GI50", "setting": "TK-10", "result": 80, "unit": "nM"}]}, {"molecule": "C[C@@H]1CC[C@H]2[C@@H](C)C(CC(CC3O[C@@H]4O[C@]5(C)CC[C@@H]6[C@@H](C)CC[C@H]([C@@H]3C)[C@]46OO5)CS(=O)(=O)c3ccc(COC(=O)N(C)C)cc3)O[C@H]3O[C@@]4(C)CC[C@@H]1[C@]32OO4", "note": "(stereo partly specified)", "values": [{"measurement": "IC50", "setting": "[10]", "result": 130, "unit": "nM"}, {"measurement": "IC50", "setting": "HCT-116", "result": 70, "unit": "nM"}, {"measurement": "IC50 at 48 h", "setting": "[9]", "result": 57.5, "unit": "µM"}, {"measurement": "IC50", "setting": "HeLa", "result": 270, "unit": "nM"}]}, {"molecule": "C[C@@H]1CC[C@H]2[C@@H](C)C(CC(CC3O[C@@H]4O[C@]5(C)CC[C@@H]6[C@@H](C)CC[C@H]([C@@H]3C)[C@]46OO5)CS(=O)(=O)c3ccc(CO)cc3)O[C@H]3O[C@@]4(C)CC[C@@H]1[C@]32OO4", "note": "(stereo partly specified)", "values": [{"measurement": "IC50", "setting": "[10]", "result": 100, "unit": "nM"}, {"measurement": "IC50", "setting": "HCT-116", "result": 70, "unit": "nM"}, {"measurement": "IC50 at 48 h", "setting": "[9]", "result": 4.9, "unit": "µM"}, {"measurement": "IC50", "setting": "HeLa", "result": 560, "unit": "nM"}]}]}
